Marks after values point to notes of the source that are not given here. Non-standard residues stand in square brackets, D forms with d. No end group written: not given here. Moiety A = not defined here; Nva = CCC[C@H](N)C(=O)O; Aib = CC(C)(N)C(=O)O
Key:
[1] = tested on: type 2 diabetic mouse (db/db) model; assay: Efficacy study in db/db mice at 10 nM/kg dose (blood glucose, body weight, food intake); type: in vivo
Description: The effect of compounds of present invention on blood glucose, food intake and body weight was studied in mice. This study was performed in a type 2 diabetic mouse (db/db) model. […] Baseline blood glucose was measured from all the animals. […] All the animals were administered with test items subcutaneously. […] Delta blood glucose (mM) was calculated.

[2] = tested on: type 2 diabetic mouse (db/db) model; assay: Efficacy study in db/db mice at 3 and 20 nM/kg dose (blood glucose, body weight, food intake); type: in vivo
Description: The effect of compounds of present invention on blood glucose, food intake and body weight was studied on mice. This study was performed in type 2 diabetic mouse (db/db) model. […] Baseline blood glucose was measured from all the animals. All animals were administered with test items subcutaneously. […] Delta blood glucose (mM) was calculated. Body weight changes and cumulative food consumption was measured at 72 hr post treatment.

[3] = Study 1, db/db mice, 10 nM/kg s.c.
[4] = Study 4, db/db mice, 10 nM/kg s.c. single dose
[5] = Study 4, db/db mice, 10 nM/kg s.c. single dose, 48 hr
[6] = Study 4, db/db mice, 10 nM/kg s.c. single dose, 96 hr
[7] = Study 3, db/db mice, 10 nM/kg s.c. single dose
[8] = Study 3, db/db mice, 10 nM/kg s.c. single dose, 48 hr
[9] = Study 3, db/db mice, 10 nM/kg s.c. single dose, 96 hr
[10] = Study 2, db/db mice, 10 nM/kg s.c. single dose
[11] = Study 2, db/db mice, 10 nM/kg s.c. single dose, 48 hr
[12] = Study 2, db/db mice, 10 nM/kg s.c. single dose, 96 hr
[13] = db/db mice, 10 nM/kg s.c., vs diabetic control

## Tirzepatide [reference compound]
[1]; [3]
  Cumulative food Intake (g) 0-48 hr. vs. Baseline, Mean: 4.9*** g
  Cumulative food Intake (g) 0-96 hr. vs. Baseline, Mean: 13.0*** g
[1]; Study 1, db/db mice, 10 nM/kg s.c., 48 hr
  Body Wt. Change (%) 48 hr. vs. Baseline, Mean: −4.2*** %
[1]; Study 1, db/db mice, 10 nM/kg s.c., 96 hr
  Body Wt. Change (%) 96 hr. vs. Baseline, Mean: −2.8*** %
[2]; 3 nM/kg s.c.
  Cumulative Food Intake (g), 0-72 hr, Mean: 9.6*** g
  Body weight change (%) 72 hr vs. Baseline, Mean: −3.4*** %
[2]; 20 nM/kg s.c.
  Cumulative Food Intake (g), 0-72 hr, Mean: 8.4*** g
  Body weight change (%) 72 hr vs. Baseline, Mean: −4.9*** %

## CCCC[C@H](NC(=O)[C@@H](NC(=O)[C@H](CO)NC(=O)[C@H](Cc1ccc(O)cc1)NC(=O)[C@H](CC(=O)O)NC(=O)[C@H](CO)NC(=O)[C@@H](NC(=O)[C@H](Cc1ccccc1)NC(=O)[C@@H](NC(=O)CNC(=O)[C@H](CCC(=O)O)NC(=O)C(C)(C)NC(=O)[C@@H](N)Cc1ccc(O)cc1)[C@@H](C)O)[C@@H](C)O)[C@@H](C)CC)C(=O)N[C@@H](CC(C)C)C(=O)N[C@@H](CC(=O)O)C(=O)N[C@@H](CCCCN)C(=O)N[C@H](C(=O)N[C@@H](C)C(=O)N[C@@H](CCC(N)=O)C(=O)N[C@@H](CCCCNC(=O)COCCOCCNC(=O)C(C)(C)NC(=O)CC[C@H](NC(=O)CCCCCCCCCCCCCCCCCCC(=O)O)C(=O)O)C(=O)N[C@@H](C)C(=O)N[C@@H](Cc1ccccc1)C(=O)N[C@H](C(=O)N[C@@H](CCC(N)=O)C(=O)N[C@@H](Cc1c[nH]c2ccccc12)C(=O)N[C@@H](CC(C)C)C(=O)N[C@H](C(=O)N[C@@H](C)C(=O)NCC(=O)NCC(=O)N1CCC[C@H]1C(=O)N[C@@H](CO)C(=O)N[C@@H](CO)C(=O)NCC(=O)N[C@@H](C)C(=O)N1CCC[C@H]1C(=O)N1CCC[C@H]1C(=O)N1CCC[C@H]1C(=O)N[C@@H](CO)C(N)=O)[C@@H](C)CC)C(C)C)[C@@H](C)CC [Compound 11]
[1]; [4]
  Cumulative food Intake (g) 0-48 hr. vs. Baseline, Mean: 8.2*** g
  Cumulative food Intake (g) 0-96 hr. vs. Baseline, Mean: 21.7* g
[1]; Study 4, db/db mice, 10 nM/kg s.c. single dose, 0 hr (baseline)
  Delta Blood Glucose (mM) Mean: 0 mM
[1]; Study 4, db/db mice, 10 nM/kg s.c. single dose, 4 hr
  Delta Blood Glucose (mM) Mean: −13.3*** mM
[1]; Study 4, db/db mice, 10 nM/kg s.c. single dose, 8 hr
  Delta Blood Glucose (mM) Mean: −13.3*** mM
[1]; Study 4, db/db mice, 10 nM/kg s.c. single dose, 12 hr
  Delta Blood Glucose (mM) Mean: −13.6*** mM
[1]; Study 4, db/db mice, 10 nM/kg s.c. single dose, 24 hr
  Delta Blood Glucose (mM) Mean: −15.4*** mM
[1]; [5]
  Body Wt. Change (%) 48 hr. vs. Baseline, Mean: −4.7*** %
  Delta Blood Glucose (mM) Mean: −6.1*** mM
[1]; Study 4, db/db mice, 10 nM/kg s.c. single dose, 72 hr
  Delta Blood Glucose (mM) Mean: 3.6 mM
[1]; [6]
  Body Wt. Change (%) 96 hr. vs. Baseline, Mean: −2.0*** %
  Delta Blood Glucose (mM) Mean: 6 mM

## Compound 9: SEQ ID 09 polypeptide (C-terminal Arg, free acid), Lys20 acylated with Moiety A (Y[Aib]EGTFTSDYSI[Nva]LDKIAQK(Moiety A)AFVQWLIAGGPSSGAPPPSR-OH; reading uncertain)
[1]; [7]
  Cumulative food Intake (g) 0-48 hr. vs. Baseline, Mean: 4.2*** g
  Cumulative food Intake (g) 0-96 hr. vs. Baseline, Mean: 16.7*** g
[1]; Study 3, db/db mice, 10 nM/kg s.c. single dose, 0 hr (baseline)
  Delta Blood Glucose (mM) Mean: 0 mM
[1]; Study 3, db/db mice, 10 nM/kg s.c. single dose, 4 hr
  Delta Blood Glucose (mM) Mean: −13.1*** mM
[1]; Study 3, db/db mice, 10 nM/kg s.c. single dose, 8 hr
  Delta Blood Glucose (mM) Mean: −12.7*** mM
[1]; Study 3, db/db mice, 10 nM/kg s.c. single dose, 12 hr
  Delta Blood Glucose (mM) Mean: −12.1*** mM
[1]; Study 3, db/db mice, 10 nM/kg s.c. single dose, 24 hr
  Delta Blood Glucose (mM) Mean: −8.7*** mM
[1]; [8]
  Body Wt. Change (%) 48 hr. vs. Baseline, Mean: −3.4*** %
  Delta Blood Glucose (mM) Mean: −7.1*** mM
[1]; Study 3, db/db mice, 10 nM/kg s.c. single dose, 72 hr
  Delta Blood Glucose (mM) Mean: −5.6* mM
[1]; [9]
  Body Wt. Change (%) 96 hr. vs. Baseline, Mean: −3.8*** %
  Delta Blood Glucose (mM) Mean: 0 mM

## Compound 4: SEQ ID 07 polypeptide, Lys20 acylated with Moiety A (Y[Nva]EGTFTSDYSI[Nva]LDKIAQK(Moiety A)AFVQWLIAGGPSSGAPPPS-NH2; not fully specified; reading uncertain)
[1]; [10]
  Cumulative food Intake (g) 0-48 hr. vs. Baseline, Mean: 4.6*** g
  Cumulative food Intake (g) 0-96 hr. vs. Baseline, Mean: 14.4*** g
[1]; Study 2, db/db mice, 10 nM/kg s.c. single dose, 0 hr (baseline)
  Delta Blood Glucose (mM) Mean: 0 mM
[1]; Study 2, db/db mice, 10 nM/kg s.c. single dose, 4 hr
  Delta Blood Glucose (mM) Mean: −10.4*** mM
[1]; Study 2, db/db mice, 10 nM/kg s.c. single dose, 8 hr
  Delta Blood Glucose (mM) Mean: −13.3*** mM
[1]; Study 2, db/db mice, 10 nM/kg s.c. single dose, 12 hr
  Delta Blood Glucose (mM) Mean: −13.8*** mM
[1]; Study 2, db/db mice, 10 nM/kg s.c. single dose, 24 hr
  Delta Blood Glucose (mM) Mean: −4.9* mM
[1]; [11]
  Body Wt. Change (%) 48 hr. vs. Baseline, Mean: −3.8*** %
  Delta Blood Glucose (mM) Mean: −3.7* mM
[1]; Study 2, db/db mice, 10 nM/kg s.c. single dose, 72 hr
  Delta Blood Glucose (mM) Mean: 0.2 mM
[1]; [12]
  Body Wt. Change (%) 96 hr. vs. Baseline, Mean: −1.9** %
  Delta Blood Glucose (mM) Mean: -1.9 mM
[1]; [13]
  blood glucose reduction: statistically significant blood glucose reduction upto 96 hr post treatment
  body weight reduction: statistically significant reduction in food intake and body weight
  reduction in food consumption: statistically significant reduction in food intake

Reference: patent US12622948B2 (SUN PHARMACEUTICAL INDUSTRIES LIMITED, priority 2020, dated 2026)
